# Results reported in patent US7834172B2, “Composition comprising at least one nucleosidic moiety as a therapeutic agent, and CKC” (Novagali Pharma SA, priority 2007, dated 2010).
# Test: CKC/oligonucleotide complex formation, observation of precipitation
# Format: physicochemical
# Conditions: SEQ ID No. 2 solution 10 μM
# From the text: CKC/Oligonucleotides complexes are formed due to the interaction of the CKC positive charges with the oligonucleotides negative charges conferred by each of the bases (18 in the case of SEQ ID No.2). The complex formation has the effect of neutralizing part of the negative charges of the oligonucleotides and to bring some lipophilic moieties to the complex. A stable complex with a balanced lipophilicity enhances the oligonucleotide penetration in the cells due to the affinity with the lipophilic cell membranes.
# Stable complexes are formed without precipitation at ratios below 10/18 (CKC/oligonucleotide negative charges, the few lipophilic moieties being unable to induce the precipitation.
substance,measurement,setting,value
"SEQ ID No. 2: 18 mer-phosphorotioate oligonucleotide, 5′-3′ sequence ACT CAT ATT CAT AGG GTG (DNA ACTCATATTCATAGGGTG; all phosphorothioate, sugars by position and methylation of C not given here; further chemistry not fully specified)",Observation (precipitation),"ratio CKC/negative charges 0.05, CKC 10 μM",No precipitation
same,Observation (precipitation),"ratio CKC/negative charges 0.27, CKC 50 μM",No precipitation
same,Observation (precipitation),"ratio CKC/negative charges 0.55, CKC 100 μM",No precipitation
same,Observation (precipitation),"ratio CKC/negative charges 0.83, CKC 150 μM",↓
same,Observation (precipitation),"ratio CKC/negative charges 1.11, CKC 200 μM",↓
same,Observation (precipitation),"ratio CKC/negative charges 1.66, CKC 300 μM",↓
same,Observation (precipitation),"ratio CKC/negative charges 2.22, CKC 400 μM",↓
same,Observation (precipitation),"ratio CKC/negative charges 2.77, CKC 500 μM",↓
same,Observation (precipitation),"ratio CKC/negative charges 4.17, CKC 750 μM",↓↓
same,Observation (precipitation),"ratio CKC/negative charges 5.55, CKC 1000 μM",↓↓↓
same,Observation (precipitation),"ratio CKC/negative charges 55.55, CKC 10000 μM",↓↓↓
